# Laboratory results from the kinase profiling compilation of Christmann-Franck et al. (2016).
# Legend:
# Assay in all cases: radiometric filter-binding kinase assay
# MAPKAPK3 (human) = MAPKAPK3 (human) (UniProt Q16644)
# FLT1 (human) = FLT1 (human) (UniProt P17948)
# MAPK15 (human) = MAPK15 (human) (UniProt Q8TD08)
# TAOK1 (human) = TAOK1 (human) (UniProt Q7L7X3)
# MELK (human) = MELK (human) (UniProt Q14680)
# RPS6KA3 KD1 KD2 (human) = RPS6KA3 KD1 KD2 (human) (UniProt P51812)
# BRSK1 (human) = BRSK1 (human) (UniProt Q8TDC3)
# RIPK2 (human) = RIPK2 (human) (UniProt O43353)
# GCK (human) = GCK (human) (UniProt Q12851)
# MAP2K6 (human) = MAP2K6 (human) (UniProt P52564)
# SRPK1 (human) = SRPK1 (human) (UniProt Q96SB4)
# MINK1 (human) = MINK1 (human) (UniProt Q8N4C8)
# PRKCA (human) = PRKCA (human) (UniProt P17252)
# AURKA (human) = AURKA (human) (UniProt O14965)
# PHKG1 (human) = PHKG1 (human) (UniProt Q16816)
# DYRK2 (human) = DYRK2 (human) (UniProt Q92630)
# EPHA2 (human) = EPHA2 (human) (UniProt P29317)
# [1] = tested on: SGK1 (human), O00141 [S422D]
# BTK (human) = BTK (human) (UniProt Q06187)
# EEF2K (human) = EEF2K (human) (UniProt O00418)
# PIM3 (human) = PIM3 (human) (UniProt Q86V86)
# [2] = tested on: PAK2 (human), Q13177 [T402E]
# MST4 (human) = MST4 (human) (UniProt Q9P289)
# MAP2K2 (human) = MAP2K2 (human) (UniProt P36507)
# MAPKAPK5 (human) = MAPKAPK5 (human) (UniProt Q8IW41)
# CSNK2A1 (human) = CSNK2A1 (human) (UniProt P68400)
# FGFR1 (human) = FGFR1 (human) (UniProt P11362)
# INSRR (human) = INSRR (human) (UniProt P14616)
# MAPK10 (human) = MAPK10 (human) (UniProt P53779)
# CHEK1 (human) = CHEK1 (human) (UniProt O14757)
# CDK2 CCNA2 (human) = CDK2 CCNA2 (human) (UniProt P20248+P24941)
# PIM2 (human) = PIM2 (human) (UniProt Q9P1W9)
# AURKB (human) = AURKB (human) (UniProt Q96GD4)
# MAPK12 (human) = MAPK12 (human) (UniProt P53778)
# PRKACA (human) = PRKACA (human) (UniProt P17612)
# ERBB4 (human) = ERBB4 (human) (UniProt Q15303)
# FGFR1 (human), sequence (P11362 whole entry, looked up): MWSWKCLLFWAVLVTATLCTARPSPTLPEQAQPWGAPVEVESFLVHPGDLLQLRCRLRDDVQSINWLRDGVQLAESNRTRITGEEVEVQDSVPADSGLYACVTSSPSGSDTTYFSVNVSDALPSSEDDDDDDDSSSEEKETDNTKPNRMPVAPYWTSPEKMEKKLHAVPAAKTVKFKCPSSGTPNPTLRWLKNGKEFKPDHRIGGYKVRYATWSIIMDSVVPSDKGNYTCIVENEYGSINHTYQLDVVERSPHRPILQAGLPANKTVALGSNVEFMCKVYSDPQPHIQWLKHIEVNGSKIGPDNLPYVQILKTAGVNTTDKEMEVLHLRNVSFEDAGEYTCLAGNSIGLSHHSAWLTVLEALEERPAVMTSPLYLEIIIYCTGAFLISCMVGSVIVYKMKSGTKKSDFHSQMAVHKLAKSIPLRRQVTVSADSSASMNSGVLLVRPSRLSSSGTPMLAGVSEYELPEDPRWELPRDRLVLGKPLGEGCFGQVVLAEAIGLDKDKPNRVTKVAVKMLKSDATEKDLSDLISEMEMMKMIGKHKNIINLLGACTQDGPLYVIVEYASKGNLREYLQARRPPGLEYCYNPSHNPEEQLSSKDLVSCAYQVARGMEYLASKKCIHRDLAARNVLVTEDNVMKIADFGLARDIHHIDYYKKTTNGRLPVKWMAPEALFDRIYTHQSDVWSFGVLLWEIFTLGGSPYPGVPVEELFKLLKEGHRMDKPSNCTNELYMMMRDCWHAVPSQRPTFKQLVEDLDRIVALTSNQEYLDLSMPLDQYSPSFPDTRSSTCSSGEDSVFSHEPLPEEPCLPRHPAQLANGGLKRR
# GCK (human), sequence (Q12851 whole entry, looked up): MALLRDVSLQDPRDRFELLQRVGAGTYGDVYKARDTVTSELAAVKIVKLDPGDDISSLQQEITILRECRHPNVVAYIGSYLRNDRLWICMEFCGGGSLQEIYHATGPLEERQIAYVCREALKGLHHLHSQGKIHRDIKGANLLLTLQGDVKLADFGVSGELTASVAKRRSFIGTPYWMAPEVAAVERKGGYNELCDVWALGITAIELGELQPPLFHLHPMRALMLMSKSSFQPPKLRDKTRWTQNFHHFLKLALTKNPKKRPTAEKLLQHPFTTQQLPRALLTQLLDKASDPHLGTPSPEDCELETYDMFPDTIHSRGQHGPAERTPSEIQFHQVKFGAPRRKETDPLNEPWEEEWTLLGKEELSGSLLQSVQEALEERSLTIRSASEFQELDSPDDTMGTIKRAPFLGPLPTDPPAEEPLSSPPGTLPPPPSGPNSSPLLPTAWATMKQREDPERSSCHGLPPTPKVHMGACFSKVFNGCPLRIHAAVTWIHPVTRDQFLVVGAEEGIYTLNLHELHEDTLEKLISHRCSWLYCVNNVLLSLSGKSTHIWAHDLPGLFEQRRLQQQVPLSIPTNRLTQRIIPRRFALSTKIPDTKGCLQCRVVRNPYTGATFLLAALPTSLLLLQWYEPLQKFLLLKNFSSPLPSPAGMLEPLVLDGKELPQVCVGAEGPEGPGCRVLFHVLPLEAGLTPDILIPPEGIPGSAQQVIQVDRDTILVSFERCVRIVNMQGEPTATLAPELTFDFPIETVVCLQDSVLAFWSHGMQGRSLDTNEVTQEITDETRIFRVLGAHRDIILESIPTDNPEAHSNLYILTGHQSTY
# BTK (human), sequence (Q06187 whole entry, looked up): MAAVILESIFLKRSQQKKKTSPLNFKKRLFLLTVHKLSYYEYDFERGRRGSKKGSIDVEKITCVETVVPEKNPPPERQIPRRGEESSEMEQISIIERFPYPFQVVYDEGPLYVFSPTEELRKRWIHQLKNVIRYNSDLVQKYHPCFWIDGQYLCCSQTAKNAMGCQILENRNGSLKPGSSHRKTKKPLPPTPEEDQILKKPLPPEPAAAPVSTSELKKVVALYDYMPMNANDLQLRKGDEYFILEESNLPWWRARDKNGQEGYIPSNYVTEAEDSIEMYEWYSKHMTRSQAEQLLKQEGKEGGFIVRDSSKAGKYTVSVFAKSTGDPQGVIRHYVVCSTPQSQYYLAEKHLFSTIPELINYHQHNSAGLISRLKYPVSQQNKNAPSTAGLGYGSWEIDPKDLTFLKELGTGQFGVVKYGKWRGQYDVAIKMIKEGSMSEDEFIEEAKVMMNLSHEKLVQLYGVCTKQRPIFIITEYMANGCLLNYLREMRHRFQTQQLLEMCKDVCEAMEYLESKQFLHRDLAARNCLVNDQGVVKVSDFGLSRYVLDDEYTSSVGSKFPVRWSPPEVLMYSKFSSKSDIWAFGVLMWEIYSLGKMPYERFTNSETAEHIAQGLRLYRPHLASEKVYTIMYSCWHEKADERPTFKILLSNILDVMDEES
# CSNK2A1 (human), sequence (P68400 whole entry, looked up): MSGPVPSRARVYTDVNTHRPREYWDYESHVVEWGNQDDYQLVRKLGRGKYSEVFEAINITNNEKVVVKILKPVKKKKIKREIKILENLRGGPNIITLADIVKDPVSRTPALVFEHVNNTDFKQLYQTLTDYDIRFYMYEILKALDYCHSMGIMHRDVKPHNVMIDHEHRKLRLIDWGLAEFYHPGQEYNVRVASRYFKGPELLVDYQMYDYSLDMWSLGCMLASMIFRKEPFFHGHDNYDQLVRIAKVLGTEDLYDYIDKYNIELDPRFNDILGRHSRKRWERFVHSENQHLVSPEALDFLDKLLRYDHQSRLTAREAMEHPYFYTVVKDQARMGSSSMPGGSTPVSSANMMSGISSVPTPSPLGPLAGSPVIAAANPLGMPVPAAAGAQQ
# MELK (human), sequence (Q14680 whole entry, looked up): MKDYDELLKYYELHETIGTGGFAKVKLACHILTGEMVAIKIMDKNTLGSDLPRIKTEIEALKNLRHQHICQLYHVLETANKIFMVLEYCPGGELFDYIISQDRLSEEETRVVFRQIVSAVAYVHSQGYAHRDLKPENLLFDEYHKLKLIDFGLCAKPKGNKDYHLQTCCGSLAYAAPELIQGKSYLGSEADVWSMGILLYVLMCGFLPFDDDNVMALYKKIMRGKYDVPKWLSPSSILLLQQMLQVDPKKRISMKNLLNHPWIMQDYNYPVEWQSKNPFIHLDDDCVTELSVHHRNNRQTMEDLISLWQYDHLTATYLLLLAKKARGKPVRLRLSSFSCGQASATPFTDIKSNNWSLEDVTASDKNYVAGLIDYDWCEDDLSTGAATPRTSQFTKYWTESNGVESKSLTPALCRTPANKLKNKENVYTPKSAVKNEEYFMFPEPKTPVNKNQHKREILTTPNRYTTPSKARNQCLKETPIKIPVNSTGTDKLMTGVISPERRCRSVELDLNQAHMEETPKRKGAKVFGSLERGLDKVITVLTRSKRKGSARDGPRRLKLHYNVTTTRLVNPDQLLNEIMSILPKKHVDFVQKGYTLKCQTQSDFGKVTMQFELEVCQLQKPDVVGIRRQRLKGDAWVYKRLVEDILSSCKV
# PIM2 (human), sequence (Q9P1W9 whole entry, looked up): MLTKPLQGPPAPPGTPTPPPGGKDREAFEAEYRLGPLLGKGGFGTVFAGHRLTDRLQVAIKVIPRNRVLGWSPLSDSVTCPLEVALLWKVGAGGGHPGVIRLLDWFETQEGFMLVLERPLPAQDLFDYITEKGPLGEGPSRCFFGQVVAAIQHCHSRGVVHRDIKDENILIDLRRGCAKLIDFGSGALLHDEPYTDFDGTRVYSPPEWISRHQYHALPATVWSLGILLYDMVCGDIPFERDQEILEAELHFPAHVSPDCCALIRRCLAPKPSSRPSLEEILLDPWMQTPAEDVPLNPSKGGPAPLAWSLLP
# RIPK2 (human), sequence (O43353 whole entry, looked up): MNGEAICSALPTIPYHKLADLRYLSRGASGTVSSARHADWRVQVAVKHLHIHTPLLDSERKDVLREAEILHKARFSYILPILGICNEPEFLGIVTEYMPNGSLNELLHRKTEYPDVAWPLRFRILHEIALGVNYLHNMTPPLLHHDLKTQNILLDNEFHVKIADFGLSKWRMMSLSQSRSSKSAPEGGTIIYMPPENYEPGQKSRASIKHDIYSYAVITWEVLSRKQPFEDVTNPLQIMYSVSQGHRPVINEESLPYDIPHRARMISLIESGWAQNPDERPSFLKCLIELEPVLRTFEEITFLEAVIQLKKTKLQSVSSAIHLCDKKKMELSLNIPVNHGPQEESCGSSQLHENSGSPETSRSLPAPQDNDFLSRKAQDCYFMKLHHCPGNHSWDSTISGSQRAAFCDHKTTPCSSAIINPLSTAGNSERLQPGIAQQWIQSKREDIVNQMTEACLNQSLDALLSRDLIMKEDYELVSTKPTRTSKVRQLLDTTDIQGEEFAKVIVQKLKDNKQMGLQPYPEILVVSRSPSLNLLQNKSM
# CHEK1 (human), sequence (O14757 whole entry, looked up): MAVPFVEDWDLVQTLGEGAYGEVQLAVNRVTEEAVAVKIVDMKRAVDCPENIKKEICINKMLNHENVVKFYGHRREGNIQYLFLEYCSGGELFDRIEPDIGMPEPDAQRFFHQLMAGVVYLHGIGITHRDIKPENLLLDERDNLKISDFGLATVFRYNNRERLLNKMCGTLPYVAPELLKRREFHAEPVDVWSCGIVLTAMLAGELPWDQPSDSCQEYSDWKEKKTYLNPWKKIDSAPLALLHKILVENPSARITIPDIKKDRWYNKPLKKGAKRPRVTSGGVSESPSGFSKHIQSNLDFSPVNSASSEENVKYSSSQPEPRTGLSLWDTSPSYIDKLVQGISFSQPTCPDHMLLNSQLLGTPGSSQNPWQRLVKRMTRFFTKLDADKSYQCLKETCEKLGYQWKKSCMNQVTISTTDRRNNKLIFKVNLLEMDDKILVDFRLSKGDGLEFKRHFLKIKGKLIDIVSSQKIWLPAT
# MAP2K6 (human), sequence (P52564 whole entry, looked up): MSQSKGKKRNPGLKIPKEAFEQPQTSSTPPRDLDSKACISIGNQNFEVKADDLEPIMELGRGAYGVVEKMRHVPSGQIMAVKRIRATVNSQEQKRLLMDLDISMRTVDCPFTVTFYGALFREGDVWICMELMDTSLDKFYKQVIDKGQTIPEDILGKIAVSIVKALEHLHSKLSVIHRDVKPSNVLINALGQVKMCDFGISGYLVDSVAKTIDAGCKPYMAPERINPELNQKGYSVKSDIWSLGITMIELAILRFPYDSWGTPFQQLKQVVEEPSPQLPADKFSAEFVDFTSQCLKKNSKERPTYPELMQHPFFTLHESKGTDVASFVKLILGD
structure (smiles),measurement,setting,value
O=C(N[C@@H](COc1ccc2[nH]c(=O)[nH]c2c1)c1ccccc1)c1cccn(Cc2ccc(F)c(F)c2)c1=O,residual activity,MAPKAPK3 (human); compound 0.1 µM,116%
same,residual activity,MAPKAPK3 (human); compound 1.0 µM,109%
same,residual activity,MAPKAPK3 (human); compound 10.0 µM,74%
same,residual activity,FLT1 (human); compound 0.1 µM,106%
same,residual activity,FLT1 (human); compound 1.0 µM,100%
same,residual activity,MAPK15 (human); compound 0.1 µM,92%
same,residual activity,MAPK15 (human); compound 1.0 µM,89%
same,residual activity,MAPK15 (human); compound 10.0 µM,94%
same,residual activity,TAOK1 (human); compound 0.1 µM,111%
same,residual activity,TAOK1 (human); compound 1.0 µM,126%
same,residual activity,TAOK1 (human); compound 10.0 µM,119%
same,residual activity,MELK (human); compound 0.1 µM,97%
same,residual activity,MELK (human); compound 1.0 µM,110%
same,residual activity,MELK (human); compound 10.0 µM,99%
same,residual activity,RPS6KA3 KD1 KD2 (human); compound 0.1 µM,102%
same,residual activity,RPS6KA3 KD1 KD2 (human); compound 1.0 µM,98%
same,residual activity,RPS6KA3 KD1 KD2 (human); compound 10.0 µM,85%
same,residual activity,BRSK1 (human); compound 0.1 µM,118%
same,residual activity,BRSK1 (human); compound 1.0 µM,102%
same,residual activity,BRSK1 (human); compound 10.0 µM,92%
same,residual activity,RIPK2 (human); compound 0.1 µM,102%
same,residual activity,RIPK2 (human); compound 1.0 µM,105%
same,residual activity,RIPK2 (human); compound 10.0 µM,98%
same,residual activity,GCK (human); compound 0.1 µM,102%
same,residual activity,GCK (human); compound 1.0 µM,101%
same,residual activity,GCK (human); compound 10.0 µM,94%
same,residual activity,MAP2K6 (human); compound 0.1 µM,94%
same,residual activity,MAP2K6 (human); compound 1.0 µM,89%
same,residual activity,MAP2K6 (human); compound 10.0 µM,108%
same,residual activity,SRPK1 (human); compound 0.1 µM,107%
same,residual activity,SRPK1 (human); compound 1.0 µM,114%
same,residual activity,SRPK1 (human); compound 10.0 µM,101%
same,residual activity,MINK1 (human); compound 0.1 µM,92%
same,residual activity,MINK1 (human); compound 1.0 µM,100%
same,residual activity,MINK1 (human); compound 10.0 µM,87%
same,residual activity,PRKCA (human); compound 0.1 µM,99%
same,residual activity,PRKCA (human); compound 1.0 µM,91%
same,residual activity,PRKCA (human); compound 10.0 µM,96%
same,residual activity,AURKA (human); compound 0.1 µM,110%
same,residual activity,AURKA (human); compound 1.0 µM,110%
same,residual activity,AURKA (human); compound 10.0 µM,103%
same,residual activity,PHKG1 (human); compound 0.1 µM,100%
same,residual activity,PHKG1 (human); compound 1.0 µM,117%
same,residual activity,DYRK2 (human); compound 0.1 µM,110%
same,residual activity,DYRK2 (human); compound 1.0 µM,101%
same,residual activity,DYRK2 (human); compound 10.0 µM,83%
same,residual activity,EPHA2 (human); compound 1.0 µM,102%
same,residual activity,EPHA2 (human); compound 10.0 µM,86%
same,residual activity,[1]; compound 0.1 µM,106%
same,residual activity,[1]; compound 1.0 µM,102%
same,residual activity,[1]; compound 10.0 µM,102%
same,residual activity,BTK (human); compound 0.1 µM,109%
same,residual activity,BTK (human); compound 1.0 µM,108%
same,residual activity,BTK (human); compound 10.0 µM,110%
same,residual activity,EEF2K (human); compound 0.1 µM,95%
same,residual activity,EEF2K (human); compound 1.0 µM,103%
same,residual activity,EEF2K (human); compound 10.0 µM,107%
same,residual activity,PIM3 (human); compound 0.1 µM,103%
same,residual activity,PIM3 (human); compound 1.0 µM,108%
same,residual activity,PIM3 (human); compound 10.0 µM,95%
same,residual activity,[2]; compound 0.1 µM,113%
same,residual activity,[2]; compound 1.0 µM,109%
same,residual activity,[2]; compound 10.0 µM,79%
same,residual activity,MST4 (human); compound 0.1 µM,101%
same,residual activity,MST4 (human); compound 1.0 µM,117%
same,residual activity,MST4 (human); compound 10.0 µM,86%
same,residual activity,MAP2K2 (human); compound 0.1 µM,121%
same,residual activity,MAP2K2 (human); compound 1.0 µM,124%
same,residual activity,MAP2K2 (human); compound 10.0 µM,135%
same,residual activity,MAPKAPK5 (human); compound 0.1 µM,108%
same,residual activity,MAPKAPK5 (human); compound 1.0 µM,100%
same,residual activity,MAPKAPK5 (human); compound 10.0 µM,95%
same,residual activity,CSNK2A1 (human); compound 0.1 µM,111%
same,residual activity,CSNK2A1 (human); compound 1.0 µM,103%
same,residual activity,CSNK2A1 (human); compound 10.0 µM,107%
same,residual activity,FGFR1 (human); compound 0.1 µM,96%
same,residual activity,FGFR1 (human); compound 1.0 µM,97%
same,residual activity,FGFR1 (human); compound 10.0 µM,75%
same,residual activity,INSRR (human); compound 0.1 µM,101%
same,residual activity,INSRR (human); compound 1.0 µM,114%
same,residual activity,INSRR (human); compound 10.0 µM,105%
same,residual activity,MAPK10 (human); compound 0.1 µM,101%
same,residual activity,MAPK10 (human); compound 1.0 µM,90%
same,residual activity,MAPK10 (human); compound 10.0 µM,101%
same,residual activity,CHEK1 (human); compound 0.1 µM,96%
same,residual activity,CHEK1 (human); compound 1.0 µM,94%
same,residual activity,CHEK1 (human); compound 10.0 µM,95%
same,residual activity,CDK2 CCNA2 (human); compound 0.1 µM,90%
same,residual activity,CDK2 CCNA2 (human); compound 1.0 µM,91%
same,residual activity,CDK2 CCNA2 (human); compound 10.0 µM,95%
same,residual activity,PIM2 (human); compound 0.1 µM,107%
same,residual activity,PIM2 (human); compound 1.0 µM,105%
same,residual activity,PIM2 (human); compound 10.0 µM,85%
same,residual activity,AURKB (human); compound 0.1 µM,105%
same,residual activity,AURKB (human); compound 1.0 µM,104%
same,residual activity,AURKB (human); compound 10.0 µM,64%
same,residual activity,MAPK12 (human); compound 0.1 µM,98%
same,residual activity,MAPK12 (human); compound 1.0 µM,110%
same,residual activity,MAPK12 (human); compound 10.0 µM,105%
same,residual activity,PRKACA (human); compound 0.1 µM,105%
same,residual activity,PRKACA (human); compound 1.0 µM,112%
same,residual activity,PRKACA (human); compound 10.0 µM,111%
same,residual activity,ERBB4 (human); compound 0.1 µM,102%
same,residual activity,ERBB4 (human); compound 1.0 µM,100%
same,residual activity,ERBB4 (human); compound 10.0 µM,98%
